# Reference: patent publication US20190100534A1, “Cephem Compounds with Latent Reactive Groups” (Gladius Pharmaceuticals, Inc., priority 2017, published 2019)
# Experiments:
# [1] = tested on: EC(KB1 CTX-M-14); assay: MIC determination; assay type: cell-based, Escherichia coli; conditions: Escherichia coli, 18 h, read-out: Minimum Inhibitory Concentrations, EC(KB1 CTX-M-14)
# How it was run: (§1)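 Overnight (18 h, 37 °C) microdilution assay. Pre-grown LB cultures were brought to 0.08-0.1 OD600 in cation-adjusted Mueller-Hinton broth; wells contained 20 μM apo-transferrin and compound between 64 and 0.125 μg/mL. Lowest clear-well concentration recorded as MIC.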
# [2] = tested on: EC(KB2 CTX-M-14); assay: MIC determination; assay type: cell-based, Escherichia coli; conditions: Escherichia coli, 18 h, read-out: Minimum Inhibitory Concentrations, EC(KB2 CTX-M-14)
# How it was run: as §1
# [3] = tested on: KP(ATCC SHV-18); assay: MIC determination; assay type: cell-based, Klebsiella pneumoniae; conditions: CAMH broth, 20 μM Apo-Transferrin, 37° C., 18 hours
# How it was run: as §1
# [4] = tested on: CF (Citrobacter freundii); assay: MIC determination; assay type: cell-based; conditions: Citrobacter freundii, CAMH broth, 20 μM Apo-Transferrin, 37° C., 18 hours, read-out: Minimum Inhibitory Concentrations, CF
# How it was run: as §1
# [5] = tested on: KP (Klebsiella pneumoniae); assay: MIC determination; assay type: cell-based; conditions: 20 μM Apo-Transferrin, 37° C., 18 hours
# How it was run: as §1
# [6] = tested on: PM (Proteus mirabilis); assay: MIC determination; assay type: cell-based; conditions: Proteus mirabilis, CAMH broth, 20 μM Apo-Transferrin, 37° C., 18 hours, read-out: Minimum Inhibitory Concentrations, PM
# How it was run: as §1
# [7] = tested on: KOXY (Klebsiella oxytoca); assay: MIC determination; assay type: cell-based; conditions: Klebsiella oxytoca, CAMH broth, 20 μM Apo-Transferrin, 37° C., 18 hours, read-out: Minimum Inhibitory Concentrations, KOXY
# How it was run: as §1
# [8] = tested on: SM (Serratia marcescens); assay: MIC determination; assay type: cell-based; conditions: Serratia marcescens, CAMH broth, 20 μM Apo-Transferrin, 37° C., 18 hours, read-out: Minimum Inhibitory Concentrations, SM
# How it was run: as §1
# [9] = tested on: ENC (Enterobacter cloacae); assay: MIC determination; assay type: cell-based; conditions: CAMH broth, 20 μM Apo-Transferrin, 37° C., 18 hours
# How it was run: as §1
# [10] = tested on: PM (RR -1); assay: MIC determination; assay type: cell-based, Proteus mirabilis; conditions: CAMH broth, 20 μM Apo-Transferrin, 37° C., 18 hours
# Description: (§2) Sterile technique was used throughout these experiments. Suspensions of organisms were removed from storage (−80° C.) and partially thawed. Partially thawed organisms (1 μL) were inoculated into 3 mL sterile LB Broth in a sterile culture tube and capped, then cultured at 37° C. with shaking for 4-5 hours until the optical density at 600 nm (OD600) was greater than 0.1 on a single beam spectrophotometer.
# (§3) The concentration of organisms was adjusted to 0.08-0.1 OD600 (0.5 McFarland units) by dilution with sterile cation-adjusted Meuller-Hinton (CAMH) broth. The suspensions were used within 30 minutes of preparation.
# (§4) A stock solution was made of each test compound by measuring 6.4 mg of the compound on an analytical balance and dissolving it in DMSO (1 mL) to get a transparent solution. The solutions were stored at −20° C. and thawed prior to use.
# (§5) Sterile CAMH broth (200 μL) containing 20 μM Apo-Transferrin was pipetted into the first row of 8 columns of a sterile, round-bottomed, transparent, 96-well microplate using an 8-channel pipette equipped with sterile tips. One hundred μL was pipetted into the wells of the remaining 11 rows.
# (§6) With an 8-channel pipette equipped with sterile tips, 100 μL of the first row solution was transferred to the second row and mixed. The process was repeated for the second to third rows and continued through row 11. One hundred μL from row 11 was removed and discarded so that all 12 rows contained 100 μL. Row 12 contained no compound and rows 1-11 contained 64, 32, 16, 8, 4, 2, 1, 0.5, 0.25, 0.125, […] of a given compound.
# (§7) Inoculant suspensions (0.5 μL) were added to the 12 wells of each column. The plates were then covered and incubated at 37° C. overnight for 18 hours.
# (§8) For each organism the MIC was determined by identifying the transparent well with the lowest test compound concentration.
# [11] = tested on: A. baumannii; assay: MIC determination; assay type: cell-based, Acinetobacter baumannii; conditions: for MIC: Acinetobacter baumannii, A. baumannii, CAMH broth, 20 μM Apo-Transferrin, 37° C., 18 hours, read-out: Minimum Inhibitory Concentrations, A. baumannii; for MICs for an Acinetobacter baumannii strain, in words: review of Table 2
# Description: as §2, §3, §4, §5, §6, §7, §8
# [12] = tested on: A. baumannii (JMI OXA-58); assay: MIC determination; assay type: cell-based, Acinetobacter baumannii; conditions: Acinetobacter baumannii, class D carbapenemase producer, CAMH broth, 20 μM Apo-Transferrin, 37° C., 18 hours, read-out: Minimum Inhibitory Concentrations, A. baumannii (JMI OXA-58)
# Description: as §2, §3, §4, §5, §6, §7, §8
# [13] = tested on: CF (RR -1); assay: MIC determination; assay type: cell-based, Citrobacter freundii; conditions: CAMH broth, 20 μM Apo-Transferrin, 37° C., 18 hours
# Description: as §2, §3, §4, §5, §6, §7, §8
# [14] = tested on: various enteric bacteria; assay: MIC determination, summary in text; assay type: cell-based; conditions: review of Tables 3-1 to 3-6
# Description: as §2, §3, §4, §5
# To each well of the first row was pipetted 2.0 μL of the 6.4 mg/mL stock test compound stock solution to give 1:100 dilutions and a final concentration of 64 μg/mL and mixed.
# as §6, §7, §8
# [15] = tested on: various Pseudomonas strains; assay: MIC determination, summary in text; assay type: cell-based, Pseudomonas aeruginosa; conditions: review of Tables 1-1 and 1-2
# Description: as §2, §3, §4, §5, §6, §7, §8
# [16] = tested on: EC (Escherichia coli); assay: MIC determination; assay type: cell-based; conditions: 20 μM Apo-Transferrin, 37° C., 18 hours; for MIC: Escherichia coli, first EC column of Table 3-1, CAMH broth, read-out: Minimum Inhibitory Concentrations, EC; for Minimum Inhibitory Concentrations, EC: Table 3-1, CAMH broth
# How it was run: as §1
# [17] = first KP column of Table 3-1, CAMH broth
# [18] = second KP column of Table 3-1, CAMH broth
SMILES,MIC [1] [µg/mL],MIC [2] [µg/mL],"Minimum Inhibitory Concentrations, KP(ATCC SHV-18) [3] [microgram/mL]",MIC [4] [µg/mL],"Minimum Inhibitory Concentrations, KP [5, 17] [microgram/mL]","Minimum Inhibitory Concentrations, KP [5, 18] [microgram/mL]",MIC [6] [µg/mL],MIC [7] [µg/mL],MIC [8] [µg/mL],"Mimimum Inhibitory Concentrations, ENC [9] [microgram/mL]","Mimimum Inhibitory Concentrations, PM (RR -1) [10] [microgram/mL]",MIC [11] [µg/mL],MIC [12] [µg/mL],"Mimimum Inhibitory Concentrations, CF (RR -1) [13] [microgram/mL]","MICs for various enteric bacteria, in words [14]","MICs for various Pseudomonas strains, in words [15]",MIC [16] [µg/mL],"Minimum Inhibitory Concentrations, EC [16] [microgram/mL]","MICs for an Acinetobacter baumannii strain, in words [11]"
"CC(C)(O/N=C(\C(=O)N[C@@H]1C(=O)N2C(C(=O)O)=C(C=Cc3ccc(C[n+]4ccc(-c5ccc(O)c(O)c5)cc4)cc3)CS[C@H]12)c1csc(N)n1)C(=O)O (mixture of isomers) [Compound 412, 1-(4-((E/Z)-2-((6R,7R)-7-((Z)-2-(2-aminothiazol-4-yl)-2-(((2-carboxypropan-2-yl)oxy)imino)acetamido)-2-carboxy-8-oxo-5-thia-1-azabicyclo[4.2.0]oct-2-en-3-yl)vinyl)benzyl)-4-(3,4-dihydroxyphenyl)pyridin-1-ium]",0.5,1,1,≤ 0.06,2,2,≤ 0.06,0.5,0.5,4,≤0.06,8,> 64,≤0.06,–,–,–,–,–
"CC(C)(O/N=C(\C(=O)N[C@@H]1C(=O)N2C(C(=O)O)=C(C=Cc3ccc(C[N+]4(C)CCc5c(Cl)c(O)c(O)c(Cl)c5C4)cc3)CS[C@H]12)c1csc(N)n1)C(=O)O (mixture of isomers) [Compound 429, 2-(4-((E/Z)-2-((6R,7R)-7-((Z)-2-(2-aminothiazol-4-yl)-2-(((2-carboxypropan-2-yl)oxy)imino)acetamido)-2-carboxy-8-oxo-5-thia-1-azabicyclo[4.2.0]oct-2-en-3-yl)vinyl)benzyl)-5,8 dichloro-6,7-dihydroxy-2-methyl-1,2,3,4-tetrahydroisoquinolin-2-ium]",–,1,–,–,1,1,–,0.5,–,–,≤0.06,2,> 64,≤0.06,–,–,–,–,–
"CC(C)(O/N=C(\C(=O)N[C@@H]1C(=O)N2C(C(=O)O)=C(C=Cc3ccc(C[N+]4(C)Cc5c(Cl)c(O)c(O)c(Cl)c5C4)cc3)CS[C@H]12)c1csc(N)n1)C(=O)O (mixture of isomers) [Compound 431, 2-(4-((E/Z)-2-((6R,7R)-7-((Z)-2-(2-aminothiazol-4-yl)-2-(((2-carboxypropan-2-yl)oxy)imino)acetamido)-2-carboxy-8-oxo-5-thia-1-azabicyclo[4.2.0]oct-2-en-3-yl)vinyl)benzyl)-4,7-dichloro-5,6-dihydroxy-2-methylisoindolin-2-ium]",–,–,–,–,0.13,0.13,–,0.13,–,–,≤0.06,1,> 64,1,low microgram/mL MICs,low microgram/mL MICs,0.5,0.5,low microgram/mL MICs
"CC(C)(O/N=C(\C(=O)N[C@@H]1C(=O)N2C(C(=O)O)=C(C=Cc3ccc(C[N+]4(C)Cc5cc(O)c(O)c(Cl)c5C4)cc3)CS[C@H]12)c1csc(N)n1)C(=O)O (mixture of isomers) [Compound 432, 2-(4-((E/Z)-2-((6R,7R)-7-((Z)-2-(2-aminothiazol-4-yl)-2-(((2-carboxypropan-2-yl)oxy)imino)acetamido)-2-carboxy-8-oxo-5-thia-1-azabicyclo[4.2.0]oct-2-en-3-yl)vinyl)benzyl)-4-chloro-5,6-dihydroxy-2-methylisoindolin-2-ium]",–,–,–,–,1,1,–,0.5,–,–,≤0.06,1,> 64,0.5,low microgram/mL MICs,–,0.25,0.25,low microgram/mL MICs
"CC(C)(O/N=C(\C(=O)N[C@@H]1C(=O)N2C(C(=O)O)=C(C=Cc3ccc(C[N+]4(C)CCc5ccc(O)c(O)c5C4)cc3)CS[C@H]12)c1csc(N)n1)C(=O)O (mixture of isomers) [Compound 442, 2-(4-((E/Z)-2-((6R,7R)-7-((Z)-2-(2-aminothiazol-4-yl)-2-(((2-carboxypropan-2-yl)oxy)imino)acetamido)-2-carboxy-8-oxo-5-thia-1-azabicyclo[4.2.0]oct-2-en-3 yl)vinyl)benzyl)-7,8-dihydroxy-2-methyl-1,2,3,4-tetrahydroisoquinolin-2-ium]",1,–,0.5,–,–,–,–,–,–,8,≤0.06,1,> 64,0.25,–,–,0.25,0.25,low microgram/mL MICs
"C#CC[N+]1(Cc2ccc(C=CC3=C(C(=O)O)N4C(=O)[C@@H](NC(=O)/C(=N\OC(C)(C)C(=O)O)c5csc(N)n5)[C@H]4SC3)cc2)CCc2cc(O)c(O)cc2C1 (mixture of isomers) [Compound 446, 2-(4-((E/Z)-2-((6R,7R)-7-((Z)-2-(2-aminothiazol-4-yl)-2-(((2-carboxypropan-2-yl)oxy)imino)acetamido)-2-carboxy-8-oxo-5-thia-1-azabicyclo[4.2.0]oct-2-en-3-yl)vinyl)benzyl)-6,7-dihydroxy-2-(prop-2-yn-1-yl)-1,2,3,4-tetrahydroisoquinolin-2-ium]",2,8,1,–,–,–,–,–,–,4,–,2,> 64,–,–,–,0.5,0.5,–
